# Experimental data as given in BindingDB's records for doi:10.1016/j.ejmech.2018.12.027 (National Taiwan University, 2019).
# pIC50: −log10 of the molar value.
# Test: Inhibition of influenza A virus (A/WSN/1933(H1N1)) neuraminidase using MUNANA as fluorogenic substrate preincubated for 10 mins followed by substrate addition and measured after 15 mins by fluorometric assay
row,Structure (SMILES),pIC50
1,CCC(CC)O[C@@H]1C=C([B-](F)(F)F)C[C@H](NC(=N)N)[C@H]1NC(C)=O,7.70
2,CCCCOS(=O)(=O)C1=C[C@@H](OC(CC)CC)[C@H](NC(C)=O)[C@@H](NC(=N)N)C1,8.48
3,CCC(CC)O[C@@H]1C=C(S(=O)(=O)CCc2ccncc2)C[C@H](NC(=N)N)[C@H]1NC(C)=O,8.01
4,CCC(CC)O[C@@H]1C=C([B-](F)(F)F)C[C@H](N)[C@H]1NC(C)=O,5.47
5,CCCCOS(=O)(=O)C1=C[C@@H](OC(CC)CC)[C@H](NC(C)=O)[C@@H](N)C1,7.57
6,CCC(CC)O[C@@H]1C=C(S(=O)(=O)O)C[C@H](NC(=N)N)[C@H]1NC(C)=O,8.89
7,CCC(CC)O[C@@H]1C=C(S(=O)(=O)O)C[C@H](N)[C@H]1NC(C)=O,8.74
8,CCC(CC)O[C@@H]1C=C(S(C)(=O)=O)C[C@H](N)[C@H]1NC(C)=O,6.74
9,CCC(CC)O[C@@H]1C=C(B(O)O)C[C@H](NC(=N)N)[C@H]1NC(C)=O,7.55
10,CCC(CC)O[C@@H]1C=C(S(=O)(=O)CCc2ccncc2)C[C@H](N)[C@H]1NC(C)=O,6.48
